Assay results taken from patent publication US9187434B2, “Substituted 1,5-benzodiazepinones compounds” (BRISTOL-MYERS SQUIBB COMPANY, priority 2012, dated 2015).

Tested on: human Notch 1
Test: Notch-CBF1 Transactivation Assay (Notch 1)
Assay type: cell-based
Conditions: HeLa cells co-transfected with truncated Notch 1 and CBF1 luciferase reporter; 18 hours incubation
From the text: (§1) Notch-CBF1 Transactivation Assay
(§2) Table 12 denotes respective DNA quantity for the transfections.
(§3) Duplicates were used for each sample.
With `N#Cc1cccc(N2C[C@H](NC(=O)[C@H](CCC(F)(F)F)[C@H](CCC(F)(F)F)C(N)=O)C(=O)Nc3c(C(F)F)cccc32)c1` [Example 10, (2R,3S)—N-((3S)-1-(3-Cyanophenyl)-6-(difluoromethyl)-4-oxo-2,3,4,5-tetrahydro-1H-1,5-benzodiazepin-3-yl)-2,3-bis(3,3,3-trifluoropropyl)succinamide] the IC50 was 0.012 µM.
For `NC(=O)[C@@H](CCC(F)(F)F)[C@@H](CCC(F)(F)F)C(=O)N[C@H]1CN(c2ccc(F)cc2)c2ccccc2NC1=O` [Example 6, (2R,3S)—N-((3S)-1-(4-Fluorophenyl)-4-oxo-2,3,4,5-tetrahydro-1H-1,5-benzodiazepin-3-yl)-2,3-bis(3,3,3-trifluoropropyl)succinamide], the IC50 was 0.0139 µM.
`N#Cc1cccc(N2C[C@H](NC(=O)[C@H](CCC(F)(F)F)[C@H](CCC(F)(F)F)C(N)=O)C(=O)Nc3c(F)cccc32)c1` [Example 17, (2R,3S)—N-((3S)-1-(3-Cyanophenyl)-6-fluoro-4-oxo-2,3,4,5-tetrahydro-1H-1,5-benzodiazepin-3-yl)-2,3-bis(3,3,3-trifluoropropyl)succinamide] showed an IC50 of 0.0176 µM.
For `N#Cc1ccccc1N1C[C@H](NC(=O)[C@H](CCC(F)(F)F)[C@H](CC2CC2)C(N)=O)C(=O)Nc2c(Cl)cccc21` [Example 26, (2R,3S)—N-((3S)-6-Chloro-1-(2-cyanophenyl)-4-oxo-2,3,4,5-tetrahydro-1H-1,5-benzodiazepin-3-yl)-3-(cyclopropylmethyl)-2-(3,3,3-trifluoropropyl)succinamide], the IC50 was 0.0225 µM.
With `N#Cc1cccc(N2C[C@H](NC(=O)[C@H](CCC(F)(F)F)[C@H](CC3CC3)C(N)=O)C(=O)Nc3c(Cl)cccc32)c1` [Example 25, (2R,3S)—N-((3S)-6-Chloro-1-(3-cyanophenyl)-4-oxo-2,3,4,5-tetrahydro-1H-1,5-benzodiazepin-3-yl)-3-(cyclopropylmethyl)-2-(3,3,3-trifluoropropyl)succinamide] the IC50 was 0.0146 µM.
With `N#Cc1cccc(N2C[C@H](NC(=O)[C@H](CCC(F)(F)F)[C@H](CCC(F)(F)F)C(N)=O)C(=O)Nc3c(Cl)cccc32)c1` [Example 23, (2R,3S)—N-((3S)-6-Chloro-1-(3-cyanophenyl)-4-oxo-2,3,4,5-tetrahydro-1H-1,5-benzodiazepin-3-yl)-2,3-bis(3,3,3-trifluoropropyl)succinamide] the IC50 was 0.0116 µM.
With `NC(=O)[C@@H](CCC(F)(F)F)[C@@H](CCC(F)(F)F)C(=O)N[C@H]1CN(c2ccc(Cl)cc2)c2ccccc2NC1=O` [Example 4, (2R,3S)—N-((3S)-1-(4-Chlorophenyl)-4-oxo-2,3,4,5-tetrahydro-1H-1,5-benzodiazepin-3-yl)-2,3-bis(3,3,3-trifluoropropyl)succinamide] the IC50 was 0.0174 µM.

Tested on: human Notch 3
Test: Notch-CBF1 Transactivation Assay (Notch 3)
Assay type: cell-based
Conditions: HeLa cells co-transfected with truncated Notch 3 and CBF1 luciferase reporter; 18 hours incubation
From the text: as §1, §2, §3
Compound `N#Cc1ccccc1N1C[C@H](NC(=O)[C@H](CCC(F)(F)F)[C@H](CC2CC2)C(N)=O)C(=O)Nc2c(Cl)cccc21` [Example 26, (2R,3S)—N-((3S)-6-Chloro-1-(2-cyanophenyl)-4-oxo-2,3,4,5-tetrahydro-1H-1,5-benzodiazepin-3-yl)-3-(cyclopropylmethyl)-2-(3,3,3-trifluoropropyl)succinamide] has an IC50 of 0.0462 µM.

Tested on: not listed separately
Test: Human metabolic stability half-life assay
Assay type: in vitro ADME
Conditions: liver microsomes, pH 7.4, human liver microsomes, 0.5 μM compound, NADPH, 45-minute time course, read-out: HLM t1/2
From the text: Metabolic Stability Half-Life Panel
With `NC(=O)[C@@H](CCC(F)(F)F)[C@@H](CCC(F)(F)F)C(=O)N[C@H]1CN(c2cccc(Cl)c2)c2cccc(Cl)c2NC1=O` [Example 31, (2R,3S)—N-((3S)-6-Chloro-1-(3-chlorophenyl)-4-oxo-2,3,4,5-tetrahydro-1H-1,5-benzodiazepin-3-yl)-2,3-bis(3,3,3-trifluoropropyl)succinamide] the half-life at 0.5 μM was ≥ 31 min.
In the case of `NC(=O)[C@@H](CCC(F)(F)F)[C@@H](CCC(F)(F)F)C(=O)N[C@H]1CN(c2cccc(C3CC3)c2)c2ccccc2NC1=O` [Example 5, (2R,3S)—N-((3S)-1-(3-Cyclopropylphenyl)-4-oxo-2,3,4,5-tetrahydro-1H-1,5-benzodiazepin-3-yl)-2,3-bis(3,3,3-trifluoropropyl)succinamide], the half-life at 0.5 μM is reported as ≥ 31 min.
With `NC(=O)[C@@H](CC1CC1)[C@@H](CCC(F)(F)F)C(=O)N[C@H]1CN(c2cccc(C3CC3)c2)c2cccc(Cl)c2NC1=O` [Example 29, (2R,3S)—N-((3S)-6-Chloro-1-(3-cyclopropylphenyl)-4-oxo-2,3,4,5-tetrahydro-1H-1,5-benzodiazepin-3-yl)-3-(cyclopropylmethyl)-2-(3,3,3-trifluoropropyl)succinamide] the half-life at 0.5 μM was ≥ 31 min.
In the case of `NC(=O)[C@@H](c1ccccc1)[C@@H](CCC(F)(F)F)C(=O)N[C@H]1CN(c2cccc(C(F)(F)F)n2)c2cccc(Cl)c2NC1=O` [Example 34, (2R,3R)—N-((3S)-6-Chloro-4-oxo-1-(6-(trifluoromethyl)-2-pyridinyl)-2,3,4,5-tetrahydro-1H-1,5-benzodiazepin-3-yl)-3-phenyl-2-(3,3,3-trifluoropropyl)succinamide], the half-life at 0.5 μM is reported as ≥ 31 min.
With `N#Cc1ccccc1N1C[C@H](NC(=O)[C@H](CCC(F)(F)F)[C@H](CC2CC2)C(N)=O)C(=O)Nc2c(Cl)cccc21` [Example 26, (2R,3S)—N-((3S)-6-Chloro-1-(2-cyanophenyl)-4-oxo-2,3,4,5-tetrahydro-1H-1,5-benzodiazepin-3-yl)-3-(cyclopropylmethyl)-2-(3,3,3-trifluoropropyl)succinamide] the half-life at 0.5 μM was ≥ 31 min.
For `NC(=O)[C@@H](CCC(F)(F)F)[C@@H](CCC(F)(F)F)C(=O)N[C@H]1CN(c2ccccc2)c2ccc(F)cc2NC1=O` [Example 37, (2R,3S)—N-((3S)-7-Fluoro-4-oxo-1-phenyl-2,3,4,5-tetrahydro-1H-1,5-benzodiazepin-3-yl)-2,3-bis(3,3,3-trifluoropropyl)succinamide], the half-life at 0.5 μM was ≥ 31 min.
With `N#Cc1cccc(N2C[C@H](NC(=O)[C@H](CCC(F)(F)F)[C@H](CC3CC3)C(N)=O)C(=O)Nc3c(Cl)cccc32)c1` [Example 25, (2R,3S)—N-((3S)-6-Chloro-1-(3-cyanophenyl)-4-oxo-2,3,4,5-tetrahydro-1H-1,5-benzodiazepin-3-yl)-3-(cyclopropylmethyl)-2-(3,3,3-trifluoropropyl)succinamide] the half-life at 0.5 μM was ≥ 31 min.
For `NC(=O)[C@@H](CC1CC1)[C@@H](CCC(F)(F)F)C(=O)N[C@H]1CN(c2cccc(C3CC3)c2)c2cccc(F)c2NC1=O` [Example 15, (2R,3S)-3-(Cyclopropylmethyl)-N-((3S)-1-(3-cyclopropylphenyl)-6-fluoro-4-oxo-2,3,4,5-tetrahydro-1H-1,5-benzodiazepin-3-yl)-2-(3,3,3-trifluoropropyl)succinamide], the half-life at 0.5 μM was ≥ 31 min.
With `NC(=O)[C@@H](CCC(F)(F)F)[C@@H](CCC(F)(F)F)C(=O)N[C@H]1CN(c2cccc(C3CC3)c2)c2cccc(Cl)c2NC1=O` [Example 1, (2R,3S)—N-((3S)-6-Chloro-1-(3-cyclopropylphenyl)-4-oxo-2,3,4,5-tetrahydro-1H-1,5-benzodiazepin-3-yl)-2,3-bis(3,3,3-trifluoropropyl)succinamide] the half-life at 0.5 μM was ≥ 31 min.
With `NC(=O)[C@@H](CCC(F)(F)F)[C@@H](CCC(F)(F)F)C(=O)N[C@H]1CN(c2cccc(Cl)c2)c2ccccc2NC1=O` [Example 3, (2R,3S)—N-((3S)-1-(3-Chlorophenyl)-4-oxo-2,3,4,5-tetrahydro-1H-1,5-benzodiazepin-3-yl)-2,3-bis(3,3,3-trifluoropropyl)succinamide] the half-life at 0.5 μM was ≥ 31 min.
With `N#Cc1cc(F)cc(N2C[C@H](NC(=O)[C@H](CCC(F)(F)F)[C@H](CC3CC3)C(N)=O)C(=O)Nc3c(Cl)cccc32)c1` [Example 28, (2R,3S)—N-((3S)-6-Chloro-1-(3-cyano-5-fluorophenyl)-4-oxo-2,3,4,5-tetrahydro-1H-1,5-benzodiazepin-3-yl)-3-(cyclopropylmethyl)-2-(3,3,3-trifluoropropyl)succinamide] the half-life at 0.5 μM was ≥ 31 min.
With `NC(=O)[C@@H](CCC(F)(F)F)[C@@H](CCC(F)(F)F)C(=O)N[C@H]1CN(c2cccc(Cl)c2)c2cccc(C3CC3)c2NC1=O` [Example 7, (2R,3S)—N-((3S)-1-(3-Chlorophenyl)-6-cyclopropyl-4-oxo-2,3,4,5-tetrahydro-1H-1,5-benzodiazepin-3-yl)-2,3-bis(3,3,3-trifluoropropyl)succinamide] the half-life at 0.5 μM was ≥ 31 min.
In the case of `NC(=O)[C@@H](CCC(F)(F)F)[C@@H](CCC(F)(F)F)C(=O)N[C@H]1CN(c2ccccn2)c2cccc(Cl)c2NC1=O` [Example 33, (2R,3S)—N-((3S)-6-Chloro-4-oxo-1-(2-pyridinyl)-2,3,4,5-tetrahydro-1H-1,5-benzodiazepin-3-yl)-2,3-bis(3,3,3-trifluoropropyl)succinamide], the half-life at 0.5 μM is reported as ≥ 31 min.
